Source: ChEMBL document CHEMBL5385947, “Tepuazines A-E: Phenazine Glycosides from a Venezuelan Quartz-Rich (Tepui) Cave Soil-Derived Streptomyces virginiae CMB-CA091” (J Nat Prod, 2024)

Tests used:
[1] = tested on: Bacillus subtilis; assay: Antibacterial activity against Bacillus subtilis ATCC 6633 assessed as inhibition of bacterial growth; type: functional, organism-based
[2] = tested on: Staphylococcus aureus; assay: Antibacterial activity against Staphylococcus aureus ATCC 25923 assessed as inhibition of bacterial growth; type: functional, organism-based
[3] = tested on: Escherichia coli; assay: Antibacterial activity against Escherichia coli ATCC 11775 assessed as inhibition of bacterial growth; type: functional, organism-based
[4] = tested on: Candida albicans; assay: Antifungal activity against Candida albicans ATCC 10231 assessed as inhibition of bacterial growth; type: functional, organism-based
[5] = tested on: SW-620; assay: Cytotoxicity against human SW620 cells assessed as inhibition of cell growth; type: functional, cell-based
[6] = tested on: NCI-H460; assay: Cytotoxicity against human NCI-H460 cells assessed as inhibition of cell growth; type: functional, cell-based

Measured: IC50

C[C@@H]1O[C@@H](Oc2cccc3nc4c(C(=O)O)cc5c(c4nc23)[C@@H]2Cc3nc4cccc(O)c4nc3[C@@](O)(C2)O5)[C@H](O)[C@H](O)[C@H]1O
> 30 µM: all assays above

O=C(O)c1cc2c(c3nc4c(O)cccc4nc13)[C@@H]1Cc3nc4cccc(O)c4nc3[C@@](O)(C1)O2
> 30 µM: all assays above

C[C@@H]1O[C@@H](Oc2cccc3nc4c(C(=O)O)cc5c(c4nc23)[C@H]2Cc3nc4cccc(O)c4nc3[C@@H](O5)[C@H]2O)[C@H](O)[C@H](O)[C@H]1O
> 30 µM: all assays above

O=C(O)c1cc2c(c3nc4c(O)cccc4nc13)[C@H]1Cc3nc4cccc(O)c4nc3[C@@H](O2)[C@H]1O
> 30 µM: all assays above

C[C@H]1O[C@H](Oc2cccc3nc4ccccc4nc23)[C@@H](O)[C@@H](O)[C@@H]1O
> 30 µM: all assays above

C[C@@H]1O[C@@H](Oc2cc(C(=O)O)c3nc4cccc(O)c4nc3c2)[C@H](O)[C@H](O)[C@H]1O
> 30 µM: all assays above

C[C@H]1O[C@H](Oc2cccc3nc4c(N(C)c5ccc(C(=O)O)cc5)cccc4nc23)[C@@H](O)[C@@H](O)[C@@H]1O
> 30 µM: all assays above

CN(c1ccc(C(=O)O)cc1)c1cccc2nc3c(O)cccc3nc12 [IZUMIPHENAZINE C]
> 30 µM: all assays above
